Assay results: US20040023884A1, “Biologically active peptides from functional domains of bactericidal/permeability-increasing protein and uses thereof” (priority 1993, published 2004)
Entries after “also recorded” stand apart in the source; their conditions may differ. Ends that are not written are not given here.

Tests used:
[1] = In vitro heparin-mediated lengthening of APTT / clotting time of heparinized plasma; assay type: biochemical, human; conditions: for effect on the clotting time of heparinized blood (in words): FIG. 12g; for effect on heparin-mediated lengthening of APTT (in words): citrated human plasma, 25 μg/mL heparin, 0.0 to 56 μg/mL
Outline: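 Citrated human plasma preincubated 1 min at 37° C with diluent (0.15 M NaCl, 0.1 M Tris-HCl, pH 7.4), with or without 25 μg/mL heparin. Compound added at 0.0 to 56 μg/mL, immediately followed by thrombin reagent. Clotting (thrombin) time measured by fibrometer.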

Klebsiella pneumoniae = assay: Radial diffusion bactericidal assay, Klebsiella pneumoniae; assay type: cell-based
[2] = tested on: LPS-stimulated NO production by RAW 264.7 cells; assay: LPS-stimulated NO production by RAW 264.7 cells; assay type: cell-based, mouse; conditions: for IC50 NO assay: LPS-stimulated NO production by RAW 264.7 cells
Protocol: (§1) An additional LPS neutralization screening assay for BPI functional domain peptides was developed using an assay for NO production in mouse cells treated with LPS (see Lorsbach et al., 1993, J. Biol. Chem. 268: 1908-1913). In this assay, mouse RAW 264.7 cells (ATCC Accession No. TIB71) were treated with bacterial LPS. The cells were incubated in 96-well plates and stimulated for 2 hours with E. coli 0113 LPS or zymosan, in the presence or absence of _-interferon, rLBP, fetal bovine serum (FBS) or normal human serum (NHS), or rBPI21Δcys. After this incubation, the cells were washed with fresh media and incubated overnight in media containing 10% FCS. The NO released from the cells accumulated in the media and spontaneously converted to nitrite. This nitrite was assayed in situ by the Griess reaction, as follows. The nitrite was reacted with the primary amine of an added sulfanilamide and formed a diazonium salt. This salt was then reacted with added naphthylethylenediamine to form a red azo-dyc. The Griess reaction was performed at room temperature in about 10 minutes. The amount of produced NO was estimated from a standard curve of Griess reaction products determined spectrophotometrically as Absorbance at a wavelength of 550 nm.

[3] = tested on: zymosan-stimulated NO production by RAW 264.7 cells; assay: Zymosan-stimulated NO production by RAW 264.7 cells; assay type: cell-based, mouse
Protocol: as §1

E. coli 0113 LPS = assay: Limulus Amoebocyte Lysate (LAL) inhibition assay; assay type: biochemical
Outline: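 BPI proteolytic fragments incubated with E. coli 0113 LPS (4 ng/mL final) for 3 h at 37 °C, then diluted in D-PBS to 200 pg/mL LPS for chromogenic LAL. Lysate 25 min, substrate 20–30 min at room temperature, acetic acid stop; OD405 expressed as percent LPS inhibition.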

[4] = FIG. 11c, up to about 2000 pmol

Substance | effect on the clotting time of heparinized blood (in words) [1] | effect on heparin-mediated lengthening of APTT (in words) [1] | bactericidal activity (in words) (Klebsiella pneumoniae; FIG. 10d) | inhibition of LPS-stimulated NO production (in words) [2] | IC50 NO assay [2] | bactericidal activity (in words) (Klebsiella pneumoniae; [4]) | inhibition of zymosan-stimulated NO production (in words) [3] | LAL / LPS inhibition activity (in words) (E. coli 0113 LPS)
KSKVGWLIQLFHKKKSKVGWLIQLFHKK-NH2 (C-terminus assumed) [BPI.29] | greatest effect | inhibit the heparin-mediated lengthening of APTT | moderate levels of activity | detectable levels of LPS neutralization | 2.4 µg/mL | – | – | –
KSKVGWLIQLFHKK-NH2 (C-terminus assumed) [BPI.13] | – | – | low levels of activity | detectable levels of LPS neutralization | 16 µg/mL | showed bactericidal activity | – | –
KWKAQKRFLKKSKVGWLIQLFHKK-NH2 (C-terminus assumed) [BPI.30] | greatest effect | inhibit the heparin-mediated lengthening of APTT | highest amount of bactericidal activity | detectable levels of LPS neutralization | – | showed bactericidal activity | inhibited by BPI.30 at high (—100 μg/mL) concentrations | –
KWKAQKRFLKKWKAQKRFLK-NH2 (C-terminus assumed) [BPI.7] | greatest effect; also recorded: less of a decrease in clotting times | – | low levels of activity | – | Not Inhibitory | – | small amount of inhibition by BPI.7 at high concentrations | significant LPS inhibition properties
NVGLKFSISNANIKISGKWKAQKRFLK [BPI.3] | smaller effect | – | – | detectable levels of LPS neutralization | – | – | not inhibited | moderate LPS inhibition activity
IKISGKWKAQKRFLK [BPI.2] | less of a decrease in clotting times | – | – | – | – | – | not inhibited | no significant LPS inhibition activity
